Assay results reported in patent US10858367B2, “Compounds” (GLAXOSMITHKLINE INTELLECTUAL PROPERTY DEVELOPMENT LIMITED, priority 2017, dated 2020).

Target: T1, LRRK2 Ser935 phosphorylation in SH-SY5Y cells over-expressing recombinant full length LRRK2 (Homo sapiens, UniProt Q5S007)
T1 construct: A BacMam virus expressing full length recombinant LRRK2 was purchased from Invitrogen; host or cells: SH-SY5Y human neuroblastoma cells transduced with BacMam LRRK2 virus
Experiment: Recombinant cellular LRRK2 AlphaScreen assay
Type: cell-based
Settings: human neuroblastoma SH-SY5Y cells, BacMam full length LRRK2, 60 minutes with compound, read-out: pIC50 in the recombinant cellular LRRK2 AlphaScreen assay (converted)
Text: b. Recombinant Cellular LRRK2 AlphaScreen Assay
To determine the activity of compounds against LRRK2 kinase activity in cells, the observed LRRK2 kinase-dependent modulation of LRRK2 Ser 935 phosphorylation (Dzamko et al., 2010, Biochem. J. 430: 405-413) was utilized to develop a quantitative 384 well plate-based immunoassay of LRRK2 Ser935 phosphorylation in the human neuroblastoma cell line SH-SY5Y, engineered to over-express recombinant full length LRRK2 protein.
A BacMam virus expressing full length recombinant LRRK2 was purchased from Invitrogen and amplified by inoculation of SF-9 cells at MOI 0.3 for 4-5 days in Sf-900 III SFM medium supplemented with 3% fetal bovine serum. Infected cell cultures were then centrifuged at 2000 g for 20 minutes, viral supernatant titer determined by anti-gp64 plaque assay and stored at 4° C.
Affinity-purified anti-phospho LRRK2 Ser935 sheep polyclonal antibody (Dzamko et al., 2010, Biochem. J. 430: 405-413) was biotinylated by standard methods (PerkinElmer). Anti-LRRK2 rabbit polyclonal antibody was purchased from Novus Biologicals. AlphaScreen Protein A IgG Kit (including acceptor and donor beads) was purchased from Perkin Elmer.
SH-SY5Y cells were grown in DMEM/F12 medium with 10% dialysed fetal bovine serum and harvested by treatment with 0.5% trypsin-EDTA for 5 minutes at 37° C. followed by centrifugation at 1000 rpm for 4 minutes. The cell pellet was resuspended in Opti-MEM reduced serum media (Invitrogen) at 200,000 cells/ml and mixed with the BacMam LRRK2 virus at MOI=50. 50 μl cell solutions were then dispensed to each well of a 384-well plate and incubated at 37° C., 5% CO2 for 24 hours.
Serial dilutions of test compounds were prepared in Opti-MEM reduced serum media (Invitrogen) and 5.6 ul transferred from compound plate to cell assay plate to achieve a top final assay concentration of 10 uM. DMSO was used in certain wells as controls. Cells were incubated at 37° C., 5% CO2 for 60 minutes. The medium was then removed and cells lysed by addition of 20 ul cell lysis buffer (Cell Signaling Technology) and incubation at 4° C. for 20 minutes. 10 ul of antibody/acceptor bead mix [(1/1000 biotinylated-pS935 LRRK2 antibody, 1/1000 total-LRRK2 antibody, 1/100 Acceptor beads in AlphaScreen detection buffer (25 mM Hepes (pH 7.4), 0.5% Triton X-100, 1 mg/ml Dextran 500 and 0.1% BSA)] was then added to each well and plates incubated for 2 hours at ambient temperature in the dark. 10 μl of donor beads solution (1/33.3 donor beads in AlphaScreen detection buffer) was then added to each well. Following incubation for a further 2 hours at ambient temperature in the dark, plates were read on an EnVision™ plate reader at emission 520-620 nm with excitation 680 nm. Dose response curve data was based on sigmoidal dose-response model.

T1 sequence (Q5S007 whole entry): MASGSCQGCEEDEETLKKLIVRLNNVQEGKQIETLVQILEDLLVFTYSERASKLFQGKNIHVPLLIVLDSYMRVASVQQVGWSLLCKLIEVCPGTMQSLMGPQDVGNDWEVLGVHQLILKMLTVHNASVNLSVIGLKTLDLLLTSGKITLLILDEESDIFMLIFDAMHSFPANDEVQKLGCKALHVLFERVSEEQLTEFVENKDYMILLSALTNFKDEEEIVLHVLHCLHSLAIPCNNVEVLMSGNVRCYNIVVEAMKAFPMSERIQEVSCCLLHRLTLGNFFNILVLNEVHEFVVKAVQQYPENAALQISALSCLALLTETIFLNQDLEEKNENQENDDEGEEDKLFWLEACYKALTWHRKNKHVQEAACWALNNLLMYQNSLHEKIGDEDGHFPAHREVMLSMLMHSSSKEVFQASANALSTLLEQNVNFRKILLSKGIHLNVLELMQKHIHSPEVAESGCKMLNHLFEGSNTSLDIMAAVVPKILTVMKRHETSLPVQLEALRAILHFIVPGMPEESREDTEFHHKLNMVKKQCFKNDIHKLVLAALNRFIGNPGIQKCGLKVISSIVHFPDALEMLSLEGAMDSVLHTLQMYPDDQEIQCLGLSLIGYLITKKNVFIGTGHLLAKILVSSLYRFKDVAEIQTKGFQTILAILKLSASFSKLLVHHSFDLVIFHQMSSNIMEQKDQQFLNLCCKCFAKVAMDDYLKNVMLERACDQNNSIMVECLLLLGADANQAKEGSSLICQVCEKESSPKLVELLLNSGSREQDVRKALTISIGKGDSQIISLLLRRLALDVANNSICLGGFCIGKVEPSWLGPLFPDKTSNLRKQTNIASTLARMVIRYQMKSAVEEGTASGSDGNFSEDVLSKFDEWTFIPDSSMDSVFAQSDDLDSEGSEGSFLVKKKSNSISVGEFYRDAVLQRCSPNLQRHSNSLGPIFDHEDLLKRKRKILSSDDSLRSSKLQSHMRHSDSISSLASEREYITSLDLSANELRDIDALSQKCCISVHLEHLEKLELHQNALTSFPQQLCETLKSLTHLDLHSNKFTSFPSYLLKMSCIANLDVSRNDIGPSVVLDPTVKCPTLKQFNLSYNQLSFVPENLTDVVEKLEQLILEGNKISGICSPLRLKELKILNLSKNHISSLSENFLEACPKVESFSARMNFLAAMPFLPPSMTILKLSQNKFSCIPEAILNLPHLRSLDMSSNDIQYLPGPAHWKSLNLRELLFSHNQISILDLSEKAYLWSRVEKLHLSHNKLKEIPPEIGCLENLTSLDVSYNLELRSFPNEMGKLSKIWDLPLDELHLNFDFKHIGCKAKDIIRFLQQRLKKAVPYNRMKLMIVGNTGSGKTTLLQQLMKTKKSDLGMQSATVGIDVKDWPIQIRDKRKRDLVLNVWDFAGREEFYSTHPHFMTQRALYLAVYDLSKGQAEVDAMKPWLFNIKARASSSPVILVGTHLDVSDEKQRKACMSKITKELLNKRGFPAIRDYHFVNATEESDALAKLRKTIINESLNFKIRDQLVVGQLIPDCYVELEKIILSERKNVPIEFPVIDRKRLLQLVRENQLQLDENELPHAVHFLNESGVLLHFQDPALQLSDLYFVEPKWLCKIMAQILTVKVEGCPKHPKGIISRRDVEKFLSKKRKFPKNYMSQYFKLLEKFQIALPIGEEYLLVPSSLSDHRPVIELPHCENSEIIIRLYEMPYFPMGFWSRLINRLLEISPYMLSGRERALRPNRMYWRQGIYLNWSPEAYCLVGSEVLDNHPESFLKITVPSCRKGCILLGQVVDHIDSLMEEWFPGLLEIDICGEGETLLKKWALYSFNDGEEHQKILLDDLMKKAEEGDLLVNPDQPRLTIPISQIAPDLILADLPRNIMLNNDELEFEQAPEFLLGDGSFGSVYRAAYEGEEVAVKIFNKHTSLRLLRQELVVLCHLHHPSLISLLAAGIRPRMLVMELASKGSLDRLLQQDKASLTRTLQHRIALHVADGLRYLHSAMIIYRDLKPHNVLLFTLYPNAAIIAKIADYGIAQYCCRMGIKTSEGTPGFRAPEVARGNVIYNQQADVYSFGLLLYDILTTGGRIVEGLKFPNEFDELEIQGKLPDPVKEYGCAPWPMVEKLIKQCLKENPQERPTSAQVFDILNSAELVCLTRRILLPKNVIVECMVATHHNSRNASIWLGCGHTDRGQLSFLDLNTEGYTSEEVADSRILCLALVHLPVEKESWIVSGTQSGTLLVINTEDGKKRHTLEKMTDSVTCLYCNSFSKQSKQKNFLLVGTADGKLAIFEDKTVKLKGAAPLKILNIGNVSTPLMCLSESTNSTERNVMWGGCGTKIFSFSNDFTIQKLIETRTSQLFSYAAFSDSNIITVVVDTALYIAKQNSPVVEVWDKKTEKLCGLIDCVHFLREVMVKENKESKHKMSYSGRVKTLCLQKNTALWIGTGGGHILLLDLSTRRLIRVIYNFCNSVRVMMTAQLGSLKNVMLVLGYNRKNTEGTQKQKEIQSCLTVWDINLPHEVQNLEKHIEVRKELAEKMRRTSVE

| IC50 [nM] | Compound |
| --- | --- |
| ≤ 1000 | COc1nc(N2C[C@@H]3C[C@H]2CO3)cc(-n2ncc3cc(C)c(C4CCN(C5CCOC5)CC4)cc32)n1 (single isomer, unassigned) [Example E15] |
| ≤ 1000 | Cc1nc(N2C[C@@H]3C[C@H]2CO3)cc(-n2ncc3cc(Cl)c(N4CCC(C)(O)CC4)cc32)n1 [Example E33, 1-(1-(6-((1S,4S)-2-oxa-5-azabicyclo[2.2.1]heptan-5-yl)-2-methylpyrimidin-4-yl)-5-chloro-1H-indazol-6-yl)-4-methylpiperidin-4-ol] |
| ≤ 1000 | COc1nc(N2C[C@@H]3C[C@H]2CO3)cc(-n2ncc3cc(Cl)c(C4CCN(C5CCOC5)CC4)cc32)n1 (single isomer, unassigned) [Example E69] |
| ≤ 1000 | COc1nc(N2C[C@@H]3C[C@H]2CO3)cc(-n2ncc3cc(C)c(C4CCN(C5COC5)CC4)cc32)n1 [Example E2, (1S,4S)-5-(2-methoxy-6-(5-methyl-6-(1-(oxetan-3-yl)piperidin-4-yl)-1H-indazol-1-yl)pyrimidin-4-yl)-2-oxa-5-azabicyclo[2.2.1]heptane] |
| ≤ 1000 | Cc1nc(N2C[C@@H]3C[C@H]2CO3)cc(-n2ncc3cc(C)c(C4CCN(CCO)CC4F)cc32)n1 (single isomer, unassigned) [Example E21] |
| ≤ 1000 | Cc1nc(N2C[C@H]3C[C@@H]2CO3)cc(-n2ncc3cc(C)c(C4CCN(C5COC5)CC4(C)O)cc32)n1 (single isomer, unassigned) [Example E147] |
| ≤ 1000 | COc1nc(N2C[C@@H]3C[C@H]2CO3)cc(-n2ncc3cc(Cl)c(C4CCN(C5COC5)CC4)cc32)n1 [Example E6, (1S,4S)-5-(6-(5-chloro-6-(1-(oxetan-3-yl)piperidin-4-yl)-1H-indazol-1-yl)-2-methoxypyrimidin-4-yl)-2-oxa-5-azabicyclo[2.2.1]heptane] |
| ≤ 1000 | COc1nc(N2C[C@@H]3C[C@H]2CO3)cc(-n2ncc3cc(C)c(C4CCN(CCO)CC4)cc32)n1 [Example E28, 2-(4-(1-(6-((1S,4S)-2-oxa-5-azabicyclo[2.2.1]heptan-5-yl)-2-methoxypyrimidin-4-yl)-5-methyl-1H-indazol-6-yl)piperidin-1-yl)ethanol] |
| ≤ 1000 | Cc1nc(N2CC3CC2CC3C(=O)O)cc(-n2ncc3cc(C)c(C4CCOCC4)cc32)n1 (single isomer, unassigned) [Example E82, 2-{2-Methyl-6-[5-methyl-6-(tetrahydro-pyran-4-yl)-indazol-1-yl]-pyrimidin-4-yl}-2-aza-bicyclo[2.2.1]heptane-5-carboxylic Acid] |
| ≤ 1000 | Cc1nc(N2C[C@H]3C[C@@H]2CO3)cc(-n2ncc3cc(Cl)c(N4CCC(C)(O)C4)cc32)n1 (single isomer, unassigned) [Example E49] |
| ≤ 1000 | Cc1nc(N2C[C@@H]3C[C@H]2CO3)cc(-n2ncc3cc(C)c([C@H]4CC[C@@](C)(O)CC4)cc32)n1 [Example E7, Cis-4-(1-(6-((1S,4S)-2-oxa-5-azabicyclo[2.2.1]heptan-5-yl)-2-methylpyrimidin-4-yl)-5-methyl-1H-indazol-6-yl)-1-methylcyclohexanol] |
| ≤ 1000 | [2H]C1(N2CCC(c3cc4c(cnn4-c4cc(N5C[C@@H]6C[C@H]5CO6)nc(OC)n4)cc3C)CC2)COC1 [Example E57, (1S,4S)-5-(6-(6-(1-(3-deuterooxetan-3-yl)piperidin-4-yl)-5-methyl-1H-indazol-1-yl)-2-methoxypyrimidin-4-yl)-2-oxa-5-azabicyclo[2.2.1]heptane] |
| ≤ 1000 | COCCN1CCC(c2cc3c(cnn3-c3cc(N4C[C@@H]5C[C@H]4CO5)nc(OC)n3)cc2C)CC1 [Example E36, (1S,4S)-5-(2-methoxy-6-(6-(1-(2-methoxyethyl)piperidin-4-yl)-5-methyl-1H-indazol-1-yl)pyrimidin-4-yl)-2-oxa-5-azabicyclo[2.2.1]heptane] |
| ≤ 1000 | COc1nc(N2C[C@@H]3C[C@H]2CO3)cc(-n2ncc3cc(C)c(C4CCN(CCF)CC4)cc32)n1 [Example E38, (1S,4S)-5-(6-(6-(1-(2-fluoroethyl)piperidin-4-yl)-5-methyl-1H-indazol-1-yl)-2-methoxypyrimidin-4-yl)-2-oxa-5-azabicyclo[2.2.1]heptane] |
| ≤ 1000 | COc1nc(N2C[C@H]3C[C@@H]2CO3)cc(-n2ncc3cc(C)c(C4CCN(CCO)CC4)cc32)n1 [Example E27, 2-(4-(1-(6-((1R,4R)-2-oxa-5-azabicyclo[2.2.1]heptan-5-yl)-2-methoxypyrimidin-4-yl)-5-methyl-1H-indazol-6-yl)piperidin-1-yl)ethanol] |
| ≤ 1000 | Cc1nc(N2CC3CCC(C2)O3)cc(-n2ncc3cc(C)c(C4CCNCC4)cc32)n1 [Example E63, 3-(2-methyl-6-(5-methyl-6-(piperidin-4-yl)-1H-indazol-1-yl)pyrimidin-4-yl)-8-oxa-3-azabicyclo[3.2.1]octane 2,2,2-trifluoroacetate] |
| ≤ 1000 | Cc1nc(N2C[C@@H]3C[C@H]2CO3)cc(-n2ncc3cc(Cl)c(N4CCC(C)(O)C4)cc32)n1 (single isomer, unassigned) [Example E47] |
| ≤ 1000 | Cc1nc(N2C[C@H]3C[C@@H]2CO3)cc(-n2ncc3cc(Cl)c(N4CCC(C)(O)CC4)cc32)n1 [Example E34, 1-(1-(6-((1R,4R)-2-oxa-5-azabicyclo[2.2.1]heptan-5-yl)-2-methylpyrimidin-4-yl)-5-chloro-1H-indazol-6-yl)-4-methylpiperidin-4-ol] |
| ≤ 1000 | Cc1nc(N2CC3CC2CO3)cc(-n2ncc3cc(C)c([C@H]4CC[C@@](C)(O)CC4)cc32)n1 (single isomer, unassigned) [Example E9] |
| ≤ 1000 | Cc1nc(N2C[C@@]3(CO)C[C@@H]2CO3)cc(-n2ncc3cc(C)c(C4CCOCC4O)cc32)n1 (single isomer, unassigned) [Example E168, 4-(1-(6-(1-(hydroxymethyl)-2-oxa-5-azabicyclo[2.2.1]heptan-5-yl)-2-methylpyrimidin-4-yl)-5-methyl-1H-indazol-6-yl)tetrahydro-2H-pyran-3-ol] |
| ≤ 1000 | COc1nc(N2C[C@H]3C[C@@H]2CO3)cc(-n2ncc3cc(C)c(C4CCC(N5CCOCC5)CC4)cc32)n1 (single isomer, unassigned) [Example E71] |
| ≤ 1000 | [2H]C([2H])([2H])Oc1nc(N2C[C@@H]3C[C@H]2CO3)cc(-n2ncc3cc(C)c(C4CCN(C5COC5)CC4)cc32)n1 [Example E73, (1S,4S)-5-(6-(5-methyl-6-(1-(oxetan-3-yl)piperidin-4-yl)-1H-indazol-1-yl)-2-(trideuteriummethoxy)pyrimidin-4-yl)-2-oxa-5-azabicyclo[2.2.1]heptane] |
| ≤ 1000 | COc1nc(N2CC3CC2CO3)cc(-n2ncc3cc(C)c([C@H]4CC[C@](C)(O)CC4)cc32)n1 (single isomer, unassigned) [Example E12] |
| ≤ 1000 | Cc1nc(N2C[C@@H]3C[C@H]2CO3)cc(-n2ncc3cc(C)c(C4CCN(C5CCOC5)CC4F)cc32)n1 (single isomer, unassigned) [Example E151] |
| ≤ 10 | COc1nc(N2C[C@H]3C[C@@H]2CO3)cc(-n2ncc3cc(C)c(C4CCN(CCO)CC4F)cc32)n1 (single isomer, unassigned) [Example E17] |

| Compound | IC50 [nM] |
| --- | --- |
| COc1nc(N2CC3CC(C2)O3)cc(-n2ncc3cc(C)c(C4CCN(C5COC5)CC4)cc32)n1 [Example E43, 3-(2-Methoxy-6-(5-methyl-6-(1-(oxetan-3-yl)piperidin-4-yl)-1H-indazol-1-yl)pyrimidin-4-yl)-6-oxa-3-azabicyclo[3.1.1]heptane] | ≤ 1000 |
| Cc1nc(N2CC3CC(C2)O3)cc(-n2ncc3cc(C)c(C4CCNCC4)cc32)n1 [Example E61, 3-(2-methyl-6-(5-methyl-6-(piperidin-4-yl)-1H-indazol-1-yl)pyrimidin-4-yl)-6-oxa-3-azabicyclo[3.1.1]heptane 2,2,2-trifluoroacetate] | ≤ 1000 |
